Results taken from patent US8158851B2, “Transgenic high tryptophan plants” (Monsanto Technology LLC, priority 2002, dated 2012).
Where two headings read alike, the source gives them in different places.

How the values were obtained:
[1] = target: T1, Agrobacterium tumefaciens anthranilate synthase P293G mutant, SEQ ID NO: 64 (Agrobacterium fabrum, UniProt A9CI26, P293G); experiment: Anthranilate synthase assay, P293G mutant; assay type: biochemical; conditions: 25° C.
T1 construct: no tag mentioned
T1 sequence (A9CI26 whole entry P293G): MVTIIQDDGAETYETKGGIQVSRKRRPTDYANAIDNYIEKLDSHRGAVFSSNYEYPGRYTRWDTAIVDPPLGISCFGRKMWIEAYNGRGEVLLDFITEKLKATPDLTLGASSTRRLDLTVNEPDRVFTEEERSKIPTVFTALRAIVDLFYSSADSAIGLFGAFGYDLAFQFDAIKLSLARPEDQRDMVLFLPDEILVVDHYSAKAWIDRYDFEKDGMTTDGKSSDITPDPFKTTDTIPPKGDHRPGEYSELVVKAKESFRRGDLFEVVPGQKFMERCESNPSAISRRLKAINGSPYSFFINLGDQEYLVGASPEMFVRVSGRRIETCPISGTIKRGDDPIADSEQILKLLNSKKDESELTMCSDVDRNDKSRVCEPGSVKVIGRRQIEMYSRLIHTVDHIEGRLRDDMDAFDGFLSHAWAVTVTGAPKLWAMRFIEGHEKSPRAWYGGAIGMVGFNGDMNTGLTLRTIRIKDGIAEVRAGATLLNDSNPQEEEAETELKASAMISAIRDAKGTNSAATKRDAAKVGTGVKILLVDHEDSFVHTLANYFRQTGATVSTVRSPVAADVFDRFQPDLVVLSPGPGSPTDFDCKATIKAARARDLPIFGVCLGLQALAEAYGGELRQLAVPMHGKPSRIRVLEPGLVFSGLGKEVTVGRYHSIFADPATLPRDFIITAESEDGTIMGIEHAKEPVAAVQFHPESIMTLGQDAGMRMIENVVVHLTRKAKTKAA
Source text: (§1) Site directed mutagenesis was used to generate ten single amino acid substitutions six sites. The mutations were introduced into the Agrobacterium tumefaciens AS in pMON34705 using the QuikChange™ Site-Directed Mutagenesis Kit (Stratagene). The primers used for site directed mutagenesis were SEQ ID NOs: 9-42 (FIG. 7; F=forward, R=reverse). Each primer sequence is specific for alteration of the nucleic acid at a specific location in the sequence and thus changing the encoded codon to code for a new amino acid. For example, S51C designates a change from serine to cysteine at amino acid position 51 in the Agrobacterium tumefaciens AS peptide sequence.
(§2) Following mutagenesis the sequence of the entire gene was reconfirmed and the variants expressed and purified from E. coli as described below for the wild type enzyme. The resultant plasmids comprising mutant Agrobacterium tumefaciens AS are suitably cloned into a plasmid for overproduction of protein using the T7 expression system as described in Example 1.
(§3) Agrobacterium tumefaciens AS wild type and mutant enzymes were expressed in E. coli as described in Example 1. The purification of all the Agrobacterium tumefaciens AS enzymes, including wild type and mutants thereof, was performed at 4° C. The cells (approximate wet weight of 1 g) were suspended in 20 ml of purification buffer (50 mM potassium phosphate, pH 7.3, 10 mM MgCl2, 10 mM 2-mercaptoethanol, 10% glycerol) and lysed by ultrasonication (Branson sonifier Cell Disruptor, W185). Supernatant was collected after centrifugation of the homogenate at 20,000×g for 15 min. The supernatant was subjected to ammonium sulfate fractionation (30 to 65% saturation). The precipitate was collected after centrifugation at 20,000×g for 15 min and dissolved in 3 ml of the purification buffer and then loaded as a whole on an Econo-Pac 10DG desalting column, pre-equilibrated with the same buffer. Fractions containing the enzyme were detected by the developed assay and pooled. The pooled enzyme (4.3 mls) was loaded on a 10 ml DEAF Sephacel (Pharmacia Biotech) column (1.5×7.5 cm) equilibrated with the same buffer. […]
(§4) The standard assay for Agrobacterium tumefaciens AS was performed at 25° C. in an assay buffer containing 100 mM potassium phosphate, pH 7.0, 10 mM MgCl2, 1 mM dithiothreitol, 200 μM chorismate and 10 mM L-glutamine. […] The formation of anthranilate was directly monitored by the absorbance increase at 320 m for 3 minutes. Initial rate of reaction was calculated as unit absorbance increase per second based on the slope of the absorbance change over the reaction time. […] Kinetic parameters and IC50 of AS were calculated after fitting the data to a non-linear regression program (GraFit).

[2] = target: T2, Agrobacterium tumefaciens anthranilate synthase S51F mutant, SEQ ID NO: 60 (Agrobacterium fabrum, UniProt A9CI26, S51F); experiment: Anthranilate synthase assay, S51F mutant; assay type: biochemical; conditions: 25° C.
T2 construct: no tag mentioned
Source text: as §1, §2, §3, §4

[3] = target: T3, Agrobacterium tumefaciens anthranilate synthase P293A mutant, SEQ ID NO: 63 (Agrobacterium fabrum, UniProt A9CI26, P293A); experiment: Anthranilate synthase assay, P293A mutant; assay type: biochemical; conditions: 25° C.
T3 construct: no tag mentioned
T3 sequence (A9CI26 whole entry P293A): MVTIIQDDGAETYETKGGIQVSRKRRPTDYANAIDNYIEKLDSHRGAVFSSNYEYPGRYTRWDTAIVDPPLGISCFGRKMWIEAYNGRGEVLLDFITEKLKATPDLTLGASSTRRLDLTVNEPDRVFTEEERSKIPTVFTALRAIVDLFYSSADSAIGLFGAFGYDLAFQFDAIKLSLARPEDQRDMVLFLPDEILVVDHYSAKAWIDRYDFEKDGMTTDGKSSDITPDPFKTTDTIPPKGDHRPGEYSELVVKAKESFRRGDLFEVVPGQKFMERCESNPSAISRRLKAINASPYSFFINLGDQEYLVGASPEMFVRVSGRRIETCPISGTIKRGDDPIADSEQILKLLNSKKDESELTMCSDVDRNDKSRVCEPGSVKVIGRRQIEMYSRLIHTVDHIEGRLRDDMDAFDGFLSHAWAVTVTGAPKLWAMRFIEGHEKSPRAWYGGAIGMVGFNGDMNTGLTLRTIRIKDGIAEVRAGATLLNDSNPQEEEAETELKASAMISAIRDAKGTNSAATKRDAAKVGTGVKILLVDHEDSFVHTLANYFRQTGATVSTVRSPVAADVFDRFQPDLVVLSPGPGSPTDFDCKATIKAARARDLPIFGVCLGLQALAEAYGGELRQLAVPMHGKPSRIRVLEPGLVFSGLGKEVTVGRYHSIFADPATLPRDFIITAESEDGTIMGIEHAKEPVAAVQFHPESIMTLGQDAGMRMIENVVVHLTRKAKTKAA
Source text: as §1, §2, §3, §4

[4] = target: T4, Agrobacterium tumefaciens anthranilate synthase N52F mutant, SEQ ID NO: 62 (Agrobacterium fabrum, UniProt A9CI26, N52F); experiment: Anthranilate synthase assay, N52F mutant; assay type: biochemical; conditions: 25° C.
T4 construct: no tag mentioned
T4 sequence (A9CI26 whole entry N52F): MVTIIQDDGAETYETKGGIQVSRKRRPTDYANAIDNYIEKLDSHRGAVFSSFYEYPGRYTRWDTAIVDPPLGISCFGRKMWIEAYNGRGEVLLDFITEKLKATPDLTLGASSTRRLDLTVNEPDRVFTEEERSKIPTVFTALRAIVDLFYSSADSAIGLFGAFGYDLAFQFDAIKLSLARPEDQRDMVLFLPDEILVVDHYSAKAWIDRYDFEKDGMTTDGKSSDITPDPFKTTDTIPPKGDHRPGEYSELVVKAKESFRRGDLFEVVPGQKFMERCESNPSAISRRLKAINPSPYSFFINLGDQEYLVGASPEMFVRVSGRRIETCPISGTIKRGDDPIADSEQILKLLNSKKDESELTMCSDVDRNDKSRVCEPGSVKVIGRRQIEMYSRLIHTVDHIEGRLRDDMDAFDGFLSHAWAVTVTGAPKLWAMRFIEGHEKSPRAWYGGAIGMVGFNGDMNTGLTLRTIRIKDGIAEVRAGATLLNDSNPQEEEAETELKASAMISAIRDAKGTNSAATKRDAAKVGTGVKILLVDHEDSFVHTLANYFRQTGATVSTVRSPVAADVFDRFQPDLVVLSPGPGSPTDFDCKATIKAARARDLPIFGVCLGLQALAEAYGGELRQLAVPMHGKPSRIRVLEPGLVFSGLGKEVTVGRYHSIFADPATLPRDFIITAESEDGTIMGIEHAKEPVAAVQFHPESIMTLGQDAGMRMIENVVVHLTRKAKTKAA
Source text: as §1, §2, §3, §4

[5] = target: T5, Agrobacterium tumefaciens anthranilate synthase (AgroAS), wild type, SEQ ID NO: 4 (Agrobacterium fabrum, UniProt A9CI26); experiment: Anthranilate synthase assay, anthranilate formation by absorbance at 320 nm; assay type: biochemical; conditions: 25° C.
T5 construct: no tag mentioned
T5 sequence (A9CI26 entry or part of it): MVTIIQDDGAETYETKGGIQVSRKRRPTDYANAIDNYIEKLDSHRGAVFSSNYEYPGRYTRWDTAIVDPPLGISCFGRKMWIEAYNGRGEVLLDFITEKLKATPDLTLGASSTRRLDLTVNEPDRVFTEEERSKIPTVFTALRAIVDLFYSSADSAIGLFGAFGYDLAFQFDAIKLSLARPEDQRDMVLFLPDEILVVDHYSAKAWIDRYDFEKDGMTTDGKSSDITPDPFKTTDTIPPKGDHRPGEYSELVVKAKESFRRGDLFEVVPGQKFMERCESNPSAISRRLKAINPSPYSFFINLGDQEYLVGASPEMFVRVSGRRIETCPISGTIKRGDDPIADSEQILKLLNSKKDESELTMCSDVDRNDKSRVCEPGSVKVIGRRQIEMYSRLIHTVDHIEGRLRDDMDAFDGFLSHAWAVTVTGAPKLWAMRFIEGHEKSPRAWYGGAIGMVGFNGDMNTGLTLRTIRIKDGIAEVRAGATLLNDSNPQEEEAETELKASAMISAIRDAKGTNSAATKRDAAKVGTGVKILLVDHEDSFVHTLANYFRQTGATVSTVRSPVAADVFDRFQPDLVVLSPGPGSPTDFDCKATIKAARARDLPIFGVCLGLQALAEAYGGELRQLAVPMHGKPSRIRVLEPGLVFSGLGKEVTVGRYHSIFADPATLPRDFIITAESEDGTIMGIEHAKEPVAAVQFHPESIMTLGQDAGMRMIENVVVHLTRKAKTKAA
Description: Agrobacterium tumefaciens AS wild type and mutant enzymes were expressed in E. coli as described in Example 1. The purification of all the Agrobacterium tumefaciens AS enzymes, including wild type and mutants thereof, was performed at 4° C. The cells (approximate wet weight of 1 g) were suspended in 20 ml of purification buffer (50 mM potassium phosphate, pH 7.3, 10 mM MgCl2, 10 mM 2-mercaptoethanol, 10% glycerol) and lysed by ultrasonication (Branson sonifier Cell Disruptor, W185). Supernatant was collected after centrifugation of the homogenate at 20,000×g for 15 min. The supernatant was subjected to ammonium sulfate fractionation (30 to 65% saturation). The precipitate was collected after centrifugation at 20,000×g for 15 min and dissolved in 3 ml of the purification buffer and then loaded as a whole on an Econo-Pac 10DG desalting column, pre-equilibrated with the same buffer. Fractions containing the enzyme were detected by the developed assay and pooled. The pooled enzyme (4.3 mls) was loaded on a 10 ml DEAF Sephacel (Pharmacia Biotech) column (1.5×7.5 cm) equilibrated with the same buffer. The column was washed with 30 ml of the purification buffer and the enzyme was eluted with 30 ml of 50 mM NaCl in the same buffer. Fractions containing high AS activity were pooled and precipitated by 65% ammonium sulfate saturation and isolated and desalted as above. Fractions containing the enzyme were pooled and stored at −80° C.
The standard assay for Agrobacterium tumefaciens AS was performed at 25° C. in an assay buffer containing 100 mM potassium phosphate, pH 7.0, 10 mM MgCl2, 1 mM dithiothreitol, 200 μM chorismate and 10 mM L-glutamine. The reaction was started by adding 30 μl of enzyme to the reaction mixture and mixing. The formation of anthranilate was directly monitored by the absorbance increase at 320 m for 3 minutes. Initial rate of reaction was calculated as unit absorbance increase per second based on the slope of the absorbance change over the reaction time. Km for chorismate (Km^Cho) was determined in the total volume of 1 ml assay buffer containing 100 mM potassium phosphate, pH 7.0, 10 mM MgCl2, 1 mM dithiothreitol with 10 mM L-glutamine and varying the concentration of chorismate between 2.5-100 μM chorismate. The Km for glutamine (Km^Gln) was determined in the total volume of 1 ml assay buffer containing 100 mM potassium phosphate, pH 7.0, 10 mM MgCl2, 1 mM dithiothreitol with 200 μM chorismate and varying the concentration of L-glutamine between 0.1-2 mM L-glutamine. […] Kinetic parameters and IC50 of AS were calculated after fitting the data to a non-linear regression program (GraFit).

[6] = target: T6, Agrobacterium tumefaciens anthranilate synthase S50K mutant, SEQ ID NO: 69 (Agrobacterium fabrum, UniProt A9CI26, S50K); experiment: Anthranilate synthase assay, S50K mutant; assay type: biochemical; conditions: 25° C.
T6 construct: no tag mentioned
Source text: as §1, §2, §3, §4

[7] = target: T7, Agrobacterium tumefaciens anthranilate synthase S51C mutant, SEQ ID NO: 61 (Agrobacterium fabrum, UniProt A9CI26, S51C); experiment: Anthranilate synthase assay, S51C mutant; assay type: biochemical; conditions: 25° C.
T7 construct: no tag mentioned
Source text: as §1, §2, §3, §4

[8] = target: T8, Agrobacterium tumefaciens anthranilate synthase V48Y mutant, SEQ ID NO: 59 (Agrobacterium fabrum, UniProt A9CI26, V48Y); experiment: Anthranilate synthase assay, V48Y mutant; assay type: biochemical; conditions: 25° C.
T8 construct: no tag mentioned
T8 sequence (A9CI26 whole entry V48Y): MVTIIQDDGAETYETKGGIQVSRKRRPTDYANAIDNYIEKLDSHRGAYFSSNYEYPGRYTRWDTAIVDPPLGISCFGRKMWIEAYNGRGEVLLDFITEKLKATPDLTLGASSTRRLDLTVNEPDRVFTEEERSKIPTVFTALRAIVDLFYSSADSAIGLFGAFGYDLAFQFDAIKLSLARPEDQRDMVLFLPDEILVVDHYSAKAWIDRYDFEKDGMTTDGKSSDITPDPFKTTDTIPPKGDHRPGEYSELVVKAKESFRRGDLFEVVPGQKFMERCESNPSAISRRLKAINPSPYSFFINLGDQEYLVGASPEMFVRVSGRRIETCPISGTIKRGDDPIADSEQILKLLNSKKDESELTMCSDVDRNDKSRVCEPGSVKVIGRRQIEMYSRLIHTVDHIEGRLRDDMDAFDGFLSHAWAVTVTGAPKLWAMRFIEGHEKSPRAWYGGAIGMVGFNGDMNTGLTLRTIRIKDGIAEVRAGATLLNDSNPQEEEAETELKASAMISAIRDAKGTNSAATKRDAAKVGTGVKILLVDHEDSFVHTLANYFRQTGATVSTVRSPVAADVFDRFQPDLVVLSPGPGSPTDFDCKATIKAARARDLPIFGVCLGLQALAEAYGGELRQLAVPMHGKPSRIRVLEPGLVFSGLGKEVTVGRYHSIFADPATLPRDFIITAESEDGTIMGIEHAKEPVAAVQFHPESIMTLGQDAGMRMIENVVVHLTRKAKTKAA
Source text: as §1, §2, §3, §4

[9] = target: T9, Agrobacterium tumefaciens anthranilate synthase V48F mutant, SEQ ID NO: 58 (Agrobacterium fabrum, UniProt A9CI26, V48F); experiment: Anthranilate synthase assay, V48F mutant; assay type: biochemical; conditions: 25° C.
T9 construct: no tag mentioned
T9 sequence (A9CI26 whole entry V48F): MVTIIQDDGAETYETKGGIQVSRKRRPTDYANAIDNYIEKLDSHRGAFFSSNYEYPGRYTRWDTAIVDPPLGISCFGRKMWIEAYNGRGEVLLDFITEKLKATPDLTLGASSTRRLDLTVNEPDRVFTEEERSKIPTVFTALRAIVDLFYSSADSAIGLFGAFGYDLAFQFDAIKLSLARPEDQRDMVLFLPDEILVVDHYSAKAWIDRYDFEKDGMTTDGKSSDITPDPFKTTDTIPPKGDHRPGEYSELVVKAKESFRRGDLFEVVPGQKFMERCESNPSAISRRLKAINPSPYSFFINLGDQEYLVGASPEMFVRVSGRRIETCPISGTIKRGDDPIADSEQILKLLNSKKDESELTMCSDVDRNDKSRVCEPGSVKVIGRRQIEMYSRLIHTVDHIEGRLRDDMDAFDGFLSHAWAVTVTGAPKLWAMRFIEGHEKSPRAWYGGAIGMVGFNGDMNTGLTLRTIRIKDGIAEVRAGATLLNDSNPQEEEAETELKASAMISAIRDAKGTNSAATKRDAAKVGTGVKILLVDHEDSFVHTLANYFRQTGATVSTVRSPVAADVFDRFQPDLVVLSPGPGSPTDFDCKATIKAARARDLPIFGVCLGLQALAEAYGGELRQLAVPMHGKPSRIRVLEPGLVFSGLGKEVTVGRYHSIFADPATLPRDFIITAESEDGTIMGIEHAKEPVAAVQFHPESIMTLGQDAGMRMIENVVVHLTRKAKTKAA
Source text: as §1, §2, §3, §4

[10] = system: soy seed; experiment: Free amino acid analysis of soy seed (tryptophan content); assay type: in vivo, Glycine max; conditions: R1 soy seeds expressing the mutant protein
Description: Amino Acid Extraction: About 50 mg of crushed soy seed (5 mg of Arabidopsis) material was placed in each centrifuge vial. One milliliter of 5% trichloroacetic acid was added to each sample (100 μl for Arabidopsis). The samples were vortexed, and allowed to sit, with agitation, at room temperature for 15 min. They were then microcentrifuged for 15 min at 14000 rpm. Some of the supernatant was then removed, placed in a HPLC vial and sealed. Samples were kept at 4° C. in the analysis queue.
Amino Acid Analysis: The reagents utilized for amino acid analysis included the OPA reagent (o-phthalaldehyde and 3-mercaptopropionic acid in borate buffer (Hewlett-Packard, PN 5061-3335)) where the borate buffer (0.4 N in water, pH 10.2). The analysis was performed using the Agilent 1100 series HPLC system as described in the Agilent Technical Publication, “Amino Acid Analysis Using Zorbax Eclipse-AAA Columns and the Agilent 1100 HPLC”, Mar. 17, 2000. First, 0.5 μl of the sample was derivatized with 2.5 μl of OPA reagent in 10 μl of borate buffer. Second, the derivative is injected onto a Eclipse XDB-C18 5 μm, 4.6×150 mm column using a flow rate of 1.2 ml/min. Amino acid concentrations were measured using fluorescence: excitation at 340 nm, emission at 450 nm. Elution was with a gradient of HPLC Buffers A and B according to Table A, where HPLC Buffer A was 40 mM Na2HPO4, pH=7.8 and HPLC Buffer B was 9:9:2::Methanol:Acetonitrile:Water.
Amino acid standards were prepared from the dry chemicals, using all amino acids of interest. Proline analysis required an additional derivatization step with 9-fluorenylmethyl-chloroformate (FMOC). Amino acid standards were also sometimes purchased in concentrations ranging from 0 to 100 μg/ml. Samples were reported in μg/g of seed powder.
Mature R1 seed is produced and analyzed for free amino acid content using fluorescence detection as described in Agilent Technologies Technical Bulletin REV14. Five seeds are chosen for single seed analysis from each event. […] The highest levels of tryptophan have a negative impact on germination.

[11] = system: Agro AS; experiment: Agro AS enzyme assay, HPLC end-point, desalted extracts of individual soybean seeds; assay type: biochemical, Agrobacterium tumefaciens; conditions: R1 soy seeds carrying the mutant allele
Description: The specific activity of anthranilate synthase was measured in eleven transformation events carrying the pMON58120 construct. Individual soybean immature seeds were analyzed using an HPLC-based end-point assay based on the method described by C. Paulsen (J. Chromatogr., 547:155-160 (1991)). Briefly, desalted extracts were generated from individual seeds in grinding buffer (100 mM Tris pH7.5, 10% glycerol, 1 mM EDTA, 1 mM DTT) and incubated for 30 min with reaction buffer (100 mM tris pH 7.5, 1 mM chorismate, 20 mM glutamine, and 10 mM MgCl2). Agro AS activity was measured in the presence or absence of 25 mM trp. The reaction was stopped with phosphoric acid and the amount of anthranilate formed was quantified by HPLC using a fluorescence detector set at 340 nm/excitation and 410 nm/emission.

[12] = pH 7.0, 10 mM L-glutamine, 2.5-100 μM chorismate, read-out: Km for chorismate (Km^Cho)
[13] = pH 7.0, 200 μM chorismate, 0.1-2 mM L-glutamine, read-out: Km for glutamine (Km^Gln)

C=C(O[C@@H]1C=C(C(=O)O)C=C[C@H]1O)C(=O)O [chorismate]
kcat ([1]; pH 7.0): 0.48 s⁻¹ | kcat/Km^Cho ([1]; pH 7.0): 14500 M⁻¹ s⁻¹ | Km [1, 12]: 33 µM | kcat ([2]; pH 7.0): 0.08 s⁻¹ | kcat/Km^Cho ([2]; pH 7.0): 8000 M⁻¹ s⁻¹ | Km [2, 12]: 10 µM | kcat ([3]; pH 7.0): 0.35 s⁻¹ | kcat/Km^Cho ([3]; pH 7.0): 14600 M⁻¹ s⁻¹ | Km [3, 12]: 24 µM | kcat ([4]; pH 7.0): 0.21 s⁻¹ | kcat/Km^Cho ([4]; pH 7.0): 38200 M⁻¹ s⁻¹ | Km [4, 12]: 5.5 µM | kcat ([5]; pH 7.0): 0.43 s⁻¹ | kcat/Km^Cho ([5]; pH 7.0): 53700 M⁻¹ s⁻¹ | Km [5, 12]: 8 µM | kcat ([6]; pH 7.0): 0.13 s⁻¹ | kcat/Km^Cho ([6]; pH 7.0): 10000 M⁻¹ s⁻¹ | Km [6, 12]: 13 µM | kcat ([7]; pH 7.0): 0.15 s⁻¹ | kcat/Km^Cho ([7]; pH 7.0): 53600 M⁻¹ s⁻¹ | Km [7, 12]: 2.8 µM | kcat ([8]; pH 7.0): 0.18 s⁻¹ | kcat/Km^Cho ([8]; pH 7.0): 42800 M⁻¹ s⁻¹ | Km [8, 12]: 4.2 µM | kcat ([9]; pH 7.0): 0.24 s⁻¹ | kcat/Km^Cho ([9]; pH 7.0): 53300 M⁻¹ s⁻¹ | Km [9, 12]: 4.5 µM

NC(=O)CC[C@H](N)C(=O)O [glutamine, L-glutamine]
Km [1, 13]: 70 µM | Km [2, 13]: 60 µM | Km [3, 13]: 160 µM | Km [4, 13]: 40 µM | Km [5, 13]: 110 µM | Km [6, 13]: 10 µM | Km [7, 13]: 80 µM | Km [8, 13]: 100 µM | Km [9, 13]: 80 µM

B1: S51F (protein)
chain: MVTIIQDDGAETYETKGGIQVSRKRRPTDYANAIDNYIEKLDSHRGAVFSFNYEYPGRYTRWDTAIVDPPLGISCFGRKMWIEAYNGRGEVLLDFITEKLKATPDLTLGASSTRRLDLTVNEPDRVFTEEERSKIPTVFTALRAIVDLFYSSADSAIGLFGAFGYDLAFQFDAIKLSLARPEDQRDMVLFLPDEILVVDHYSAKAWIDRYDFEKDGMTTDGKSSDITPDPFKTTDTIPPKGDHRPGEYSELVVKAKESFRRGDLFEVVPGQKFMERCESNPSAISRRLKAINPSPYSFFINLGDQEYLVGASPEMFVRVSGRRIETCPISGTIKRGDDPIADSEQILKLLNSKKDESELTMCSDVDRNDKSRVCEPGSVKVIGRRQIEMYSRLIHTVDHIEGRLRDDMDAFDGFLSHAWAVTVTGAPKLWAMRFIEGHEKSPRAWYGGAIGMVGFNGDMNTGLTLRTIRIKDGIAEVRAGATLLNDSNPQEEEAETELKASAMISAIRDAKGTNSAATKRDAAKVGTGVKILLVDHEDSFVHTLANYFRQTGATVSTVRSPVAADVFDRFQPDLVVLSPGPGSPTDFDCKATIKAARARDLPIFGVCLGLQALAEAYGGELRQLAVPMHGKPSRIRVLEPGLVFSGLGKEVTVGRYHSIFADPATLPRDFIITAESEDGTIMGIEHAKEPVAAVQFHPESIMTLGQDAGMRMIENVVVHLTRKAKTKAA
modifications: An A. tumefaciens mutant.
amounts of tryptophan [10]: very high amounts of tryptophan | tryptophan-resistant anthranilate synthase activity [11]: Very high levels
